Reference: PMC5856881, “UGT79B31 is responsible for the final modification step of pollen-specific flavonoid biosynthesis in Petunia hybrida” (Planta, 2017)

Biological target: T1, UGT79B31 (Petunia x hybrida, UniProt A0A2Z6FLE1)
T1 construct: full-length, cloned from petunia pollen cDNA; His/ProS2 fusion (pColdProS2) in E. coli BL21star (DE3), tag cleaved with HRV3C protease; partially purified
Assay: end-product inhibition, UPLC/PDA/QTOF/MS glucosyltransferase assay
Type: biochemical
Settings: read-out: Relative activity (%)
From the text: end-product inhibition, UPLC/PDA/QTOF/MS glucosyltransferase assay on UGT79B31

T1 sequence (A0A2Z6FLE1 1-455): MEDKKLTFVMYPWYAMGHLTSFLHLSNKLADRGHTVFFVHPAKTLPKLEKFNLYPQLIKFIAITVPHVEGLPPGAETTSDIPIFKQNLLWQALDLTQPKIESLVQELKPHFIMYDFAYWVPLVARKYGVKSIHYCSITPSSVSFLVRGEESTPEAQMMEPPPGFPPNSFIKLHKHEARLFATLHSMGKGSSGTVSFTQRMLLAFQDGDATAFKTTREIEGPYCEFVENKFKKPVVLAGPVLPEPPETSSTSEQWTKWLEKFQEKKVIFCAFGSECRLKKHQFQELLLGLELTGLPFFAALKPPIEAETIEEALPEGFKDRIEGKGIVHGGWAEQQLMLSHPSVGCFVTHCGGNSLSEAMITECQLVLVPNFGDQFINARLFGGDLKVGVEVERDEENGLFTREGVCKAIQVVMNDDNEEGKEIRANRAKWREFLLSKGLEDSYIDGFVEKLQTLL

SMILES: O=c1ccn([C@@H]2O[C@H](COP(=O)(O)OP(=O)(O)O)[C@@H](O)[C@H]2O)c(=O)[nH]1 [UDP]
- activity at 1000 µM: 4.2 ± 0.1%
